From patent US6583133B1, “Propenyl cephalosporin derivatives and process for the manufacture thereof” (Basilea Pharmaceutica AG, priority 1998, dated 2003)
≈ marks a conversion by molar mass, not a printed value. Where two headings read alike, the source gives them in different places.

What was measured:
S. aureus 6538 (MSSA) = assay: MIC, agar dilution method in Mueller Hinton agar; assay type: cell-based; conditions: inoculum 10^4 CFU/spot
Description: (§1) Representative compounds of the present invention were tested. In vitro activity was determined by minimum inhibitory concentration in a microorganism spectrum by the agar dilution method in Mueller Hinton agar, inoculum=10^4 CFU/spot.

S. aureus 270A (MRSA) = assay: MIC, agar dilution method in Mueller Hinton agar; assay type: cell-based; conditions: inoculum 10^4 CFU/spot
Description: as §1

S. pneumoniae 907 = assay: MIC, agar dilution method in Mueller Hinton agar; assay type: cell-based; conditions: inoculum 10^4 CFU/spot
Description: as §1

E. faecalis 6 = assay: MIC, agar dilution method in Mueller Hinton agar; assay type: cell-based; conditions: inoculum 10^4 CFU/spot
Description: as §1

S. aureus 42080 (MRSA) = assay: MIC against MRSA alone or in combination with imipenem or compound X, agar dilution; assay type: cell-based, Staphylococcus aureus; conditions: inoculum 10^5 CFU/spot; for MIC: Staphylococcus aureus, MRSA
From the text: (§2) For example, the combination with carbapenem antibiotics such as imipenem, or with β-lactamase-inhibitors such as (Z)-(2S,3S,5R)-3-(2-cyanoethenyl)-3-methyl-4,4,7-trioxo-4-thia-1-aza-bicyclo[3.2.0]heptane-2-carboxylic acid (below named “compound X”), enhances the antibacterial activity of compounds I against highly resistant strains of Graem-positive bacterias, e.g. methicillin-resistant strains of Staphylococcus aureus.

S. aureus SPO-19 (MRSA) = assay: as above; assay type: cell-based, Staphylococcus aureus; conditions: inoculum 10^5 CFU/spot; for MIC: Staphylococcus aureus, MRSA
From the text: as §2

[1] = Staphylococcus aureus, read-out: MIC
[2] = Streptococcus pneumoniae, read-out: MIC
[3] = Enterococcus faecalis, read-out: MIC
[4] = in combination with Compound X (μg/ml, concentration not given)
[5] = in combination with Imipenem (4 μg/ml)

Row | Compound | MIC (S. aureus 6538 (MSSA); [1]) | MIC (S. aureus 270A (MRSA); [1]) | MIC (S. pneumoniae 907; [2]) | MIC (E. faecalis 6; [3]) | MIC (S. aureus 6538 (MSSA)) | MIC (S. aureus 270A (MRSA)) | MIC (S. pneumoniae 907) | MIC (E. faecalis 6) | other results
1 | O=C(CSc1nc2ccccc2s1)N[C@@H]1C(=O)N2C(C(=O)[O-])=C(/C=C/C[n+]3ccccc3)CS[C@H]12 [Example 2, (E)-(6R,7R)-7-[2-(benzothiazol-2-ylsulfanyl)-acetylamino]-8-oxo-3-(3-pyridin-1-ium-1-yl-propenyl)-5-thia-1-aza-bicyclo[4.2.0]oct-2-ene-2-carboxylate] | < 0.1 µg/mL | 2 µg/mL (≈ 3.81 µM) | < 0.1 µg/mL | 2 µg/mL (≈ 3.81 µM) | – | – | – | – | –
2 | O=C(CSc1ccc2ccccc2c1)N[C@@H]1C(=O)N2C(C(=O)[O-])=C(/C=C/C[n+]3cccc4ccccc43)CS[C@H]12 [Example 13, (E)-(6R,7R)-7-[2-(Naphthalen-2-ylsulfanyl)-acetylamino]-8-oxo-3-(3-quinolin-1-ium-1-yl-propenyl)-5-thia-1-aza-bicyclo[4.2.0]oct-2-ene-2-carboxylate] | < 0.1 µg/mL | 1 µg/mL (≈ 1.76 µM) | < 0.1 µg/mL | 0.25 µg/mL (≈ 0.44 µM) | – | – | – | – | –
3 | O=C(CSc1ccc2ccccc2c1)N[C@@H]1C(=O)N2C(C(=O)[O-])=C(/C=C/C[n+]3ccccc3)CS[C@H]12 [Example 22, (E)-(6R,7R)-7-[2-(naphthalen-2-ylsulfanyl)-acetylamino]-8-oxo-3-(3-pyridin-1-ium-1-yl-propenyl)-5-thia-1-aza-bicyclo[4.2.0]oct-2-ene-2-carboxylate] | < 0.1 µg/mL | 1 µg/mL (≈ 1.93 µM) | < 0.1 µg/mL | 0.5 µg/mL (≈ 0.966 µM) | – | – | – | – | MIC (S. aureus 42080 (MRSA); compound alone): 4 µg/mL; MIC against MRSA (S. aureus 42080 (MRSA); [4]): 1 µg/mL; MIC against MRSA (S. aureus 42080 (MRSA); [5]): 1 µg/mL; MIC (S. aureus SPO-19 (MRSA); compound alone): 4 µg/mL; MIC against MRSA (S. aureus SPO-19 (MRSA); [4]): 0.5 µg/mL; MIC against MRSA (S. aureus SPO-19 (MRSA); [5]): 1 µg/mL
4 | O=C(CSc1ccc2ccccc2c1)N[C@@H]1C(=O)N2C(C(=O)[O-])=C(/C=C/C[N+]34CCN(CC3)CC4)CS[C@H]12 [Example 59, (E)-(6R,7R)-3-[3-(4-Aza-1-azonia-bicyclo[2,2,2]octan-1-yl)-propenyl]-7-[2-(naphthalen-2-ylsulfanyl)-acetylamino]-8-oxo-5-thia-1-aza-bicyclo[4.2.0]oct-2-ene-2-carboxylate] | < 0.1 µg/mL | 2 µg/mL (≈ 3.63 µM) | < 0.1 µg/mL | 2 µg/mL (≈ 3.63 µM) | – | – | – | – | MIC (S. aureus 42080 (MRSA); compound alone): 4 µg/mL; MIC against MRSA (S. aureus 42080 (MRSA); [5]): 2 µg/mL; MIC (S. aureus SPO-19 (MRSA); compound alone): 4 µg/mL; MIC against MRSA (S. aureus SPO-19 (MRSA); [5]): 1 µg/mL
5 | C[N+](C)(C/C=C/C1=C(C(=O)[O-])N2C(=O)[C@@H](NC(=O)CSc3nc4ccccc4s3)[C@H]2SC1)C(CO)CO [Example 67, (E)-(6R,7R)-7-[2-(Benzothiazol-2-ylsulfanyl)-acetylamino]-8-oxo-3-[3-[(2-hydroxy-1-hydroxymethyl-ethyl)-dimethyl-ammonio]-propenyl]-5-thia-1-aza-bicyclo[4.2.0]oct-2-ene-2-carboxylate] | < 0.1 µg/mL | 2 µg/mL (≈ 3.54 µM) | < 0.1 µg/mL | 1 µg/mL (≈ 1.77 µM) | – | – | – | – | –
6 | C[C@@H](O)[C@H]1C(=O)N2C(C(=O)O)=C(SCCN=CN)C[C@H]12 [Imipenem, imipenem, reference compound] | – | – | – | – | – | – | – | – | MIC (S. aureus 42080 (MRSA); compound alone): > 16 µg/mL; MIC (S. aureus SPO-19 (MRSA); compound alone): > 16 µg/mL
7 | (E)-(6R,7R)-8-Oxo-3-(3-pyridin-1-ium-1-yl-propenyl)-7-[2-(2,4,5-trichlorophenylsulfanyl)-acetylamino]-5-thia-1-aza-bicyclo[4.2.0]oct-2-ene-2-carboxylate [Example 6] | – | – | – | – | <0.1 µg/mL | 1 µg/mL | <0.1 µg/mL | 0.25 µg/mL | MIC against MRSA (S. aureus 42080 (MRSA); compound alone): 8 µg/mL; MIC against MRSA (S. aureus 42080 (MRSA); [5]): 1 µg/mL; MIC against MRSA (S. aureus SPO-19 (MRSA); compound alone): 4 µg/mL; MIC against MRSA (S. aureus SPO-19 (MRSA); [5]): 0.5 µg/mL

Continued, in another order:

Row | MIC (S. aureus 6538 (MSSA); [1]) | MIC (S. aureus 270A (MRSA); [1]) | MIC (S. pneumoniae 907; [2]) | MIC (E. faecalis 6; [3]) | MIC (S. aureus 6538 (MSSA)) | MIC (S. aureus 270A (MRSA)) | MIC (S. pneumoniae 907) | MIC (E. faecalis 6) | Compound | other results
8 | < 0.1 µg/mL | 2 µg/mL (≈ 3.76 µM) | < 0.1 µg/mL | 1 µg/mL (≈ 1.88 µM) | – | – | – | – | Cc1cccc[n+]1C/C=C/C1=C(C(=O)[O-])N2C(=O)[C@@H](NC(=O)CSc3ccc4ccccc4c3)[C@H]2SC1 [Example 7, (E)-(6R,7R)-3-[3-(2-Methyl-pyridin-1-ium-1-yl)-propenyl]-7-[2-(naphthalen-2-ylsulfanyl)-acetylamino]-8-oxo-5-thia-1-aza-bicyclo[4.2.0]oct-2-ene-2-carboxylate] | –
9 | – | – | – | – | <0.1 µg/mL | 2 µg/mL (≈ 3.75 µM) | <0.1 µg/mL | 0.5 µg/mL (≈ 0.937 µM) | O=C(CSc1ccc2ccccc2c1)N[C@@H]1C(=O)N2C(C(=O)[O-])=C(/C=C/C[n+]3cccc(O)c3)CS[C@H]12 [Example 9, (E)-(6R,7R)-3-[3-(3-Hydroxy-pyridin-1-ium-1-yl)-propenyl]-7-[2-(naphtalen-2-ylsulfanyl)-acetylamino]-8-oxo-5-thia-1-aza-bicyclo[4.2.0]oct-2-ene-2-carboxylate] | –
10 | – | – | – | – | <0.1 µg/mL | 2 µg/mL (≈ 3.82 µM) | <0.1 µg/mL | 0.5 µg/mL (≈ 0.955 µM) | C[N+]1(C/C=C/C2=C(C(=O)[O-])N3C(=O)[C@@H](NC(=O)CSc4ccc5ccccc5c4)[C@H]3SC2)CCCC1 [Example 15] | –
11 | – | – | – | – | <0.1 µg/mL | 1 µg/mL (≈ 1.85 µM) | <0.1 µg/mL | 0.5 µg/mL (≈ 0.925 µM) | C[N+](C)(C/C=C/C1=C(C(=O)[O-])N2C(=O)[C@@H](NC(=O)CSc3ccc4ccccc4c3)[C@H]2SC1)CC(N)=O [Example 19, (E)-(6R,7R)-3-[3-(Carbamoylmethyl-dimethyl-ammonio)-propenyl]-7-[2-(naphtalen-2-ylsulfanyl)-acetylamino]-8-oxo-5-thia-1-aza-bicyclo[4.2.0]oct-2-ene-2-carboxylate] | –
12 | – | – | – | – | <0.1 µg/mL | 4 µg/mL (≈ 7.48 µM) | <0.1 µg/mL | 1 µg/mL (≈ 1.87 µM) | C[N+](C)(C/C=C/C1=C(C(=O)[O-])N2C(=O)[C@@H](NC(=O)CSc3nc4ccccc4s3)[C@H]2SC1)CCO [Example 41, (E)-(6R,7R)-3-[3-[Dimethyl-(2-hydroxy-ethyl)-ammonio]-propenyl]-7-[2-(benzothiazol-2-ylsulfanyl)-acetylamino]-8-oxo-5-thias1-aza-bicyclo[4.2.0]oct-2-ene-2-carboxylate] | –
13 | < 0.1 µg/mL | 2 µg/mL (≈ 3.69 µM) | < 0.1 µg/mL | 1 µg/mL (≈ 1.85 µM) | – | – | – | – | C[N+](C)(C/C=C/C1=C(C(=O)[O-])N2C(=O)[C@@H](NC(=O)CSc3ccc4ccccc4c3)[C@H]2SC1)CCCO [Example 62, (E)-(6R,7R)-3-[3-[(3-Hydroxy-propyl)-dimethyl-ammonio]-propenyl]-7-[2-(naphthalen-2-ylsulfanyl)-acetylamino]-8-oxo-5-thia-1-aza-bicyclo[4.2.0]oct-2-ene-2-carboxylate] | MIC (S. aureus 42080 (MRSA); compound alone): 4 µg/mL; MIC against MRSA (S. aureus 42080 (MRSA); [5]): 2 µg/mL; MIC (S. aureus SPO-19 (MRSA); compound alone): 2 µg/mL; MIC against MRSA (S. aureus SPO-19 (MRSA); [5]): 1 µg/mL
14 | – | – | – | – | <0.1 µg/mL | 2 µg/mL (≈ 3.42 µM) | <0.1 µg/mL | 4 µg/mL (≈ 6.84 µM) | C[N+](C)(C/C=C/C1=C(C(=O)[O-])N2C(=O)[C@@H](NC(=O)CSc3ccc4cc(C(=O)O)ccc4c3)[C@H]2SC1)CC(N)=O [Example 99] | –
